Columns and labels:
[1] = tested on: Wnt pathway activity (SW480 colon carcinoma cells stably expressing the Sp5-Luc reporter); experiment: Wnt pathway activity screening assay (Sp5-Luc reporter gene assay); settings: Homo sapiens, SW480, Table 4; SW480 cells stably expressing Sp5-Luc reporter, 10-point dose-response from 10 μM, 36 to 48 hours
CLK2 kinase = CLK2 kinase (Homo sapiens, UniProt P49760); experiment: CLK2 kinase activity assay (Z-lyte FRET); type: biochemical; settings: Z-lyte Ser/Thr 6 peptide, 60 μM ATP, 1 h at room temperature;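 also: FRET read-out as coumarin to fluorescein emission ratio, unphosphorylated peptide as 0% and phosphorylated peptide as 100% controls, duplicate reactions, non-linear regression fit of dose-response curves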
CLK2 kinase, sequence (P49760 whole entry): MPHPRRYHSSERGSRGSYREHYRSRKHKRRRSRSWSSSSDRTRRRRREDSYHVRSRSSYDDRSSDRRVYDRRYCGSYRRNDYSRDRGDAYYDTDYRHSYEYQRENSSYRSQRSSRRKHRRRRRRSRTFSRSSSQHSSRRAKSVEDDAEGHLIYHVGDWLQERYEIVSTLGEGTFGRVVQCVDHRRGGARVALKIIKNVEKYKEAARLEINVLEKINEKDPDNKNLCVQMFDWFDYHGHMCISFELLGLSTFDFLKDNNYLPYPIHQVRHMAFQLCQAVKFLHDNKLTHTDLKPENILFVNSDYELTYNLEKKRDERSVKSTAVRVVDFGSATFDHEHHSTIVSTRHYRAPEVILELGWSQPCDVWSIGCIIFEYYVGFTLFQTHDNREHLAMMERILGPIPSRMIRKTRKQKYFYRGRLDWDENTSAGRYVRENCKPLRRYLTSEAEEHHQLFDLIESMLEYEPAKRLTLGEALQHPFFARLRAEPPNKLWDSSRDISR
Experimental: This is a non-radioactive assay using fluorescence resonance energy transfer (FRET) between coumarin and fluorescein to detect kinase activity which is represented as a ratio of coumarin emission/fluorescein emission.
The mixture was allowed to incubate with the representative compounds for one hour at room temperature. All reactions were performed in duplicate. Unphosphorylated (“0% Control”) and phosphorylated (“100% control”) forms of Ser/Thr 6 served as control reactions. Additionally, an 11-point dose-response curve of Staurosporine (1 μM top) was run to serve as a positive compound control.
After incubation, Development Reagent A was diluted in Development Buffer then added to the reaction and allowed to further incubate for one hour at room temperature.
Dose-response curves were generated and inhibitory concentration (IC50) values were calculated using non-linear regression curve fit in the Dotmatics' Studies Software (Bishops Stortford, UK).

[2] = tested on: primary human mesenchymal stem cells (hMSCs); experiment: Chondrogenesis screening using primary human mesenchymal stem cells; type: cell-based; settings: Homo sapiens, Mesenchymal stem cells, hMSC chondrogenesis; for Emax: maximum activity relative to TGF-β3 (10 ng/mL) positive control, read-out: Max. Activity as % TGF-β3 activity; for EC50: concentration required to induce 50% levels of chondrogenesis with TGF-β3 as positive control, read-out: Conc (nM) of 50% TGF-β3 activity
Outline: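 Primary hMSCs at passage 3–6 were treated across compound concentrations, with TGF-β3 as positive control. Chondrogenic nodule area per well was normalized to 3 DMSO wells on the same plate (fold over DMSO, 2–3 replicates). EC50, maximum activity and the dose reaching it were derived.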

CLK3 kinase = CLK3 kinase (Homo sapiens, UniProt P49761); experiment: CLK3 kinase activity assay (Z-lyte FRET); type: biochemical; settings: Z-lyte Ser/Thr 18 peptide, 156 μM ATP, 1 h at room temperature;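 also: kinase activity read as coumarin/fluorescein emission ratio by FRET, unphosphorylated peptide as 0% and phosphorylated peptide as 100% control, values from non-linear regression of dose-response curves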
CLK3 kinase, sequence (P49761 whole entry): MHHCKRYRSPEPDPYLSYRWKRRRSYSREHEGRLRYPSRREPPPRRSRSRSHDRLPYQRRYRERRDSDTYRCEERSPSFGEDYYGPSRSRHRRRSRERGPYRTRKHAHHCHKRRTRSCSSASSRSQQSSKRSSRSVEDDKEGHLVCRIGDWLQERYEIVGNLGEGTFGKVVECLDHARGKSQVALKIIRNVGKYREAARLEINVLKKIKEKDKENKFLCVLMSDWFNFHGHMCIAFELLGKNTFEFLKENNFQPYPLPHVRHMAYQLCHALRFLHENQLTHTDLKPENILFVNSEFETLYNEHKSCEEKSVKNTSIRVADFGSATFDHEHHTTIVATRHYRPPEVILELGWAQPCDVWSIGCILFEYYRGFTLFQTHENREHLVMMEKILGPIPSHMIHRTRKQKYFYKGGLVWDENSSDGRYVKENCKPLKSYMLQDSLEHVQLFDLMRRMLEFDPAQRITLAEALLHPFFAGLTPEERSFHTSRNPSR

Row | SMILES | EC50 [1] [nM] | EC50 (CLK2 kinase) [nM] | Emax [2] [%] | EC50 (CLK3 kinase) [nM] | EC50 [2] [nM]
1 | Nc1cncc(-c2ccc3[nH]nc(-c4cc5c(-c6ccccn6)ccnc5[nH]4)c3c2)c1 [compound 407] | 22.4 | 3 | 46.1 | 19 | 
2 | O=C(CC1CCNCC1)Nc1cncc(-c2ccc3[nH]nc(-c4cc5c(-c6ccccn6)cccc5[nH]4)c3n2)c1 [compound 408] | 1440 | 2 | 8.03 | 32 | 
3 | FC1(F)CCN(Cc2cncc(-c3ccc4[nH]nc(-c5cc6c(-c7ccccn7)cccc6[nH]5)c4n3)c2)C1 [compound 409] | 432 | 5 | 81.9 | 142 | 10
4 | c1cncc(-c2ccc3[nH]nc(-c4cc5cnccc5[nH]4)c3c2)c1 [compound 410] | 40 | 1 | 342 | 15 | 
5 | c1cncc(-c2cnc3[nH]nc(-c4cc5cccnc5[nH]4)c3c2)c1 [compound 411] | 1060 | 5 | 11 | 351 | 
6 | c1cncc(-c2cc3c(-c4cc5cnccc5[nH]4)n[nH]c3cn2)c1 [compound 412] | 133 | 2 | 62 | 88 | 30
7 | c1cncc(-c2cc3c(-c4cc5cccnc5[nH]4)n[nH]c3cn2)c1 [compound 413] | > 10000 | 4 | 27.6 | 5490 | 
8 | c1cncc(-c2ccc3[nH]nc(-c4cc5cccnc5[nH]4)c3n2)c1 [compound 414] | > 10000 | 3 | 65.9 | 1360 | 10
9 | Cc1ccncc1-c1ccc2[nH]nc(-c3cc4ccncc4[nH]3)c2c1 [compound 415] | 191 | 1 | 161 | 31 | 
10 | Cc1ccncc1-c1cc2c(-c3cc4cnccc4[nH]3)n[nH]c2cn1 [compound 416] | 389 | 3 | 61.4 | 61 | 10
11 | Nc1cncc(-c2ccc3[nH]nc(-c4cc5cccnc5[nH]4)c3c2)c1 [compound 417] | 102 | 3 | 35.5 | 73 | 
12 | CCC(=O)Nc1cncc(-c2cnc3[nH]nc(-c4cc5cnccc5[nH]4)c3c2)c1 [compound 418] | 960 | 2 | 16.9 | 41 | 
13 | CC(C)C(=O)Nc1cncc(-c2cc3c(-c4cc5cnccc5[nH]4)n[nH]c3cn2)c1 [compound 419] | 399 | 1 | 61.2 | 16 | 30
14 | CCCCC(=O)Nc1cncc(-c2ccc3[nH]nc(-c4cc5cccnc5[nH]4)c3c2)c1 [compound 420] | 324 | 11 | 34.1 | 344 | 
15 | CCCCC(=O)Nc1cncc(-c2cnc3[nH]nc(-c4cc5cnccc5[nH]4)c3c2)c1 [compound 421] | 1470 | 3 | 30.8 | 83 | 
16 | CCCCC(=O)Nc1cncc(-c2cc3c(-c4cc5cnccc5[nH]4)n[nH]c3cn2)c1 [compound 422] | 3570 | 3 | 49.9 | 54 | 
17 | CC(C)CC(=O)Nc1cncc(-c2cc3c(-c4cc5cccnc5[nH]4)n[nH]c3cn2)c1 [compound 423] | > 10000 | 21 | 40.4 | 6210 | 
18 | CC(C)(C)CC(=O)Nc1cncc(-c2cnc3[nH]nc(-c4cc5cnccc5[nH]4)c3c2)c1 [compound 424] | 605 | 2 | 7.07 | 47 | 
19 | CC(C)(C)CC(=O)Nc1cncc(-c2cc3c(-c4cc5cnccc5[nH]4)n[nH]c3cn2)c1 [compound 425] | 1890 | 3 | 58.8 | 56 | 10
20 | O=C(Nc1cncc(-c2cc3c(-c4cc5cnccc5[nH]4)n[nH]c3cn2)c1)C1CC1 [compound 426] | 1540 | 5 | 58.5 | 88 | 30
21 | O=C(Nc1cncc(-c2cc3c(-c4cc5cccnc5[nH]4)n[nH]c3cn2)c1)C1CC1 [compound 427] | > 10000 | 9 | 17.7 | 9840 | 
22 | O=C(Nc1cncc(-c2ccc3[nH]nc(-c4cc5cnccc5[nH]4)c3c2)c1)C1CCC1 [compound 428] | 75 | 2 | 213 | 19 | 

Row | SMILES | EC50 [1] [nM] | EC50 (CLK2 kinase) [nM] | Emax [2] [%] | EC50 (CLK3 kinase) [nM] | EC50 [2] [nM]
23 | O=C(Nc1cncc(-c2ccc3[nH]nc(-c4cc5cccnc5[nH]4)c3c2)c1)C1CCCC1 [compound 429] | 271 | 9 | 30.2 | 365 | 
24 | O=C(Nc1cncc(-c2ccc3[nH]nc(-c4cc5ccncc5[nH]4)c3n2)c1)C1CCCC1 [compound 430] | 2630 | 7 | 50.3 | 147 | 30
25 | O=C(Nc1cncc(-c2cnc3[nH]nc(-c4cc5cccnc5[nH]4)c3c2)c1)C1CCCCC1 [compound 432] | 1260 | 17 | 28.5 | 2970 | 
26 | O=C(Nc1cncc(-c2cc3c(-c4cc5cnccc5[nH]4)n[nH]c3cn2)c1)C1CCCCC1 [compound 433] | 1620 | 3 | 59.4 | 62 | 30
27 | O=C(Cc1ccccc1)Nc1cncc(-c2ccc3[nH]nc(-c4cc5cnccc5[nH]4)c3c2)c1 [compound 434] | 1760 | 5 | 119 | 189 | 
28 | O=C(Nc1cncc(-c2cnc3[nH]nc(-c4cc5cnccc5[nH]4)c3c2)c1)c1ccccc1 [compound 435] | > 10000 | 2 | 69.9 | 46 | 30
29 | O=C(Nc1cncc(-c2cc3c(-c4cc5cnccc5[nH]4)n[nH]c3cn2)c1)c1ccccc1 [compound 437] | 580 | 2 | 152 | 62 | 10
30 | CCNCc1cncc(-c2ccc3[nH]nc(-c4cc5ccccc5[nH]4)c3c2)c1 [compound 438] | 395 | 4 | 532 | 269 | 10
31 | CCNCc1cncc(-c2ccc3[nH]nc(-c4cc5cnccc5[nH]4)c3c2)c1 [compound 439] | 1040 | 2 | 317 | 49 | 
32 | CCNCc1cncc(-c2ccc3[nH]nc(-c4cc5cccnc5[nH]4)c3n2)c1 [compound 440] | 3760 | 3 | 79.9 | 562 | 10
33 | CN(C)c1cncc(-c2cc3c(-c4cc5cnccc5[nH]4)n[nH]c3cn2)c1 [compound 441] | 3060 | 5 | 101 | 538 | 300
34 | CN(C)Cc1cncc(-c2ccc3[nH]nc(-c4cc5cnccc5[nH]4)c3n2)c1 [compound 442] | 1140 | 3 | 119 | 101 | 30
35 | CN(C)Cc1cncc(-c2ccc3[nH]nc(-c4cc5cccnc5[nH]4)c3n2)c1 [compound 443] | > 10000 | 7 | 37 | 566 | 
36 | c1ccc2[nH]c(-c3n[nH]c4ncc(-c5cncc(CN6CCCC6)c5)cc34)cc2c1 [compound 444] | 1410 | 9 | 97.6 | 362 | 10
37 | FC1(F)CCN(Cc2cncc(-c3cc4c(-c5cc6cccnc6[nH]5)n[nH]c4cn3)c2)C1 [compound 445] | 1350 | 5 | 45.3 | 203 | 
38 | FC1(F)CCN(Cc2cncc(-c3ccc4[nH]nc(-c5cc6cnccc6[nH]5)c4n3)c2)C1 [compound 446] | 45 | 1 | 134 | 23 | 300
39 | FC1(F)CCN(Cc2cncc(-c3ccc4[nH]nc(-c5cc6cccnc6[nH]5)c4n3)c2)C1 [compound 447] | 104 | 2 | 134 | 37 | 100
40 | c1cc2[nH]c(-c3n[nH]c4ccc(-c5cncc(CN6CCCCC6)c5)cc34)cc2cn1 [compound 448] | 685 | 3 | 122 | 28 | 
41 | c1cnc2[nH]c(-c3n[nH]c4ccc(-c5cncc(CN6CCCCC6)c5)cc34)cc2c1 [compound 450] | 1670 | 3 | 50.8 | 85 | 
42 | c1cc2[nH]c(-c3n[nH]c4ncc(-c5cncc(CN6CCCCC6)c5)cc34)cc2cn1 [compound 451] | 1540 | 5 | 39.7 | 53 | 
43 | c1cc2cc(-c3n[nH]c4ccc(-c5cncc(OCCN6CCCC6)c5)cc34)[nH]c2cn1 [compound 452] | 1850 | 2 | 44.6 | 68 | 

— patent US20230000842A1, “METHODS OF TREATING CARTILAGE DISORDERS THROUGH INHIBITION OF CLK AND DYRK” (SAMUMED, LLC, priority 2019, published 2023)
